Results from patent US12588678B2, “Oxazoline compound, synthesis method therefor and application thereof” (NANKAI UNIVERSITY, priority 2019, dated 2026).

Assays:
[1] = tested on: Tetranychus cinnabarinus mite larvae; assay: Larvicidal activity test, dipping method on bean seedling leaves; format: in vivo; conditions: for acaricidal activity compared with etoxazole: Tetranychus cinnabarinus eggs and larvae, etoxazole as reference; for mortality at 0.1 µg/mL: read-out: mortality of mite larvae (%), 0.1 mg/L; for mortality at 1 µg/mL: read-out: mortality of mite larvae (%), 1 mg/L; for mortality at 10 µg/mL: read-out: mortality of mite larvae (%), 10 mg/L; for mortality at 100 µg/mL: read-out: mortality of mite larvae (%), 100 mg/L; for mortality at 200 µg/mL: read-out: mortality of mite larvae (%), 200 mg/L; for mortality at 0.001 µg/mL: read-out: mortality of mite larvae (%), 0.001 mg/L; for mortality at 0.01 µg/mL: read-out: mortality of mite larvae (%), 0.01 mg/L; for mortality at 0.5 µg/mL: read-out: mortality of mite larvae (%), 0.5 mg/L; for larvicidal activity, times that of etoxazole: relative to etoxazole
Description: (§1) The assay examples are used to illustrate the acaricidal activity against Tetranychus cinnabarinus (mortality of mite larvae and mortality of mite eggs) of the compounds having the structure represented by formula (I), and the results are shown in tables 1 to 9, where mortality of mite larvae % =(number of dead mite larvae applied/total number of mite larvae applied)×100, and mortality of mite eggs %= (number of dead mite eggs applied/total number of mite eggs applied)×100.
Tetranychus cinnabarinus bred indoors on bean seedlings was used as a test subject by the dipping method. Move adult mites onto the newly grown complete bean seedling leaves with two leaves, cut off the bean seedlings, place the bean seedlings in a greenhouse with illumination at 25° C. for laying eggs for 24 hours, then remove adult mites and keep mite eggs. And continuously culture in the greenhouse for 5 days until mite eggs hatch into mite larvae (ensuring that the number of the mites on each tested leaf is not less than 60).
Completely immerse the bean seedling leaves containing the mite larvae into the sample solution to be detected with Tween at the prepared concentration for 5-6 seconds by using tweezers, slightly throw off residual liquid, put the bean seedling leaves back to the culture cup, continuously culture for 4 days and check the result. One of the plants was immersed in a solution containing no sample to be tested and the remaining additives were identical to the sample solution as a blank control. Each compound was replicated three times.

[2] = tested on: Tetranychus cinnabarinus mite eggs; assay: Activity against mite eggs, dipping method on bean seedling leaves; format: in vivo; conditions: for mortality at 0.1 µg/mL: read-out: mortality of mite eggs (%), 0.1 mg/L; for mortality at 1 µg/mL: read-out: mortality of mite eggs (%), 1 mg/L; for mortality at 10 µg/mL: read-out: mortality of mite eggs (%), 10 mg/L; for mortality at 100 µg/mL: read-out: mortality of mite eggs (%), 100 mg/L; for mortality at 200 µg/mL: read-out: mortality of mite eggs (%), 200 mg/L; for mortality at 0.001 µg/mL: read-out: mortality of mite eggs (%), 0.001 mg/L; for mortality at 0.01 µg/mL: read-out: mortality of mite eggs (%), 0.01 mg/L; for mortality at 0.5 µg/mL: read-out: mortality of mite eggs (%), 0.5 mg/L; for activity on mite eggs, times that of etoxazole: relative to etoxazole
Description: as §1
Tetranychus cinnabarinus bred indoors on bean seedlings was used as a test subject by the dipping method. Move female adult mites onto the newly grown complete bean seedling leaves with two leaves, cut off the bean seedlings, place the bean seedlings in a greenhouse with illumination at 25° C. for laying eggs for 24 hours, then remove adult mites and keep mite eggs. After continuously culturing in the greenhouse for one day, completely soak the bean seedling leaves containing the acarid eggs into the prepared sample solution to be tested for 5-6 seconds by using tweezers, slightly throw off residual liquid, put the bean seedling leaves back to the culture cup, continuously culture for 4 days and then check the result. One of the plants was immersed in a solution containing no sample to be tested and the remaining additives were identical to the sample solution as a blank control. Each compound was replicated three times.

[3] = Tetranychus cinnabarinus, 96 h, checked after 4 days

SMILES | acaricidal activity compared with etoxazole [1] | mortality at 0.1 µg/mL [1, 3] | mortality at 1 µg/mL [1, 3] | mortality at 10 µg/mL [1, 3] | mortality at 100 µg/mL [1, 3] | mortality at 200 µg/mL [1, 3] | mortality at 0.1 µg/mL [2, 3] | mortality at 1 µg/mL [2, 3] | mortality at 10 µg/mL [2, 3] | mortality at 100 µg/mL [2, 3] | mortality at 200 µg/mL [2, 3] | also measured
Fc1ccc2c(ccn2Cc2ccc(C3COC(c4c(F)cccc4F)=N3)cc2)c1 (stereo not drawn) [Compound R1-22] | higher acaricidal activity than etoxazole | 70% | 80% | 85% | 100% | 100% | 75% | 85% | 90% | 98% | 100% | mortality at 0.05 µg/mL ([1]; Tetranychus cinnabarinus, 96 h, read-out: mortality of mite larvae (%), 0.05 mg/L, checked after 4 days): 45%; mortality at 0.05 µg/mL ([2]; Tetranychus cinnabarinus, 96 h, read-out: mortality of mite eggs (%), 0.05 mg/L, checked after 4 days): 45%
Fc1cccc(F)c1C1=NC(c2ccc(Cn3ccc4cc(Cl)ccc43)cc2)CO1 (stereo not drawn) [Compound R1-23] |  |  | 50% | 80% | 100% | 100% |  | 60% | 75% | 100% | 100% | 
Fc1cccc(F)c1C1=NC(c2ccc(Cn3ccc4cc(Br)ccc43)cc2)CO1 (stereo not drawn) [Compound R1-24] |  |  |  | 60% | 100% | 100% |  | 40% | 80% | 100% | 100% | 
COc1ccc2ccn(Cc3ccc(C4COC(c5c(F)cccc5F)=N4)cc3)c2c1 (stereo not drawn) [Compound R1-25] |  |  |  | 20% | 70% | 80% |  | 40% | 65% | 90% | 100% | 
COCc1ccc(C2COC(c3c(F)cccc3F)=N2)cc1 (stereo not drawn) [Compound R2-1] |  | 50% | 85% | 100% | 100% | 100% | 60% | 97% | 100% | 100% | 100% | 
CCOCc1ccc(C2COC(c3c(F)cccc3F)=N2)cc1 (stereo not drawn) [Compound R2-2] | higher acaricidal activity than etoxazole | 80% | 90% | 90% | 100% | 100% | 85% | 95% | 100% | 100% | 100% | mortality at 0.001 µg/mL [1, 3]: 30%; mortality at 0.01 µg/mL [1, 3]: 50%; mortality at 0.5 µg/mL [1, 3]: 83%; mortality at 0.001 µg/mL [2, 3]: 40%; mortality at 0.01 µg/mL [2, 3]: 65%; mortality at 0.5 µg/mL [2, 3]: 90%
CCCOCc1ccc(C2COC(c3c(F)cccc3F)=N2)cc1 (stereo not drawn) [Compound R2-3] | higher acaricidal activity than etoxazole | 90% | 95% | 97% | 100% | 100% | 85% | 100% | 100% | 100% | 100% | mortality at 0.001 µg/mL [1, 3]: 45%; mortality at 0.01 µg/mL [1, 3]: 70%; mortality at 0.5 µg/mL [1, 3]: 91%; larvicidal activity, times that of etoxazole [1]: 58 times; mortality at 0.001 µg/mL [2, 3]: 50%; mortality at 0.01 µg/mL [2, 3]: 77%; mortality at 0.5 µg/mL [2, 3]: 92%; activity on mite eggs, times that of etoxazole [2]: 105 times
FCCOCc1ccc(C2COC(c3c(F)cccc3F)=N2)cc1 (stereo not drawn) [Compound R2-4] |  | 70% | 85% | 92% | 100% | 100% | 70% | 90% | 98% | 100% | 100% | 
Fc1cccc(F)c1C1=NC(c2ccc(COCC(F)(F)F)cc2)CO1 (stereo not drawn) [Compound R2-5] | higher acaricidal activity than etoxazole | 90% | 95% | 100% | 100% | 100% | 90% | 97% | 100% | 100% | 100% | mortality at 0.001 µg/mL [1, 3]: 37%; mortality at 0.01 µg/mL [1, 3]: 65%; mortality at 0.5 µg/mL [1, 3]: 90%; larvicidal activity, times that of etoxazole [1]: 27 times; mortality at 0.001 µg/mL [2, 3]: 47%; mortality at 0.01 µg/mL [2, 3]: 70%; mortality at 0.5 µg/mL [2, 3]: 90%; activity on mite eggs, times that of etoxazole [2]: 105 times
C=C(C)COCc1ccc(C2COC(c3c(F)cccc3F)=N2)cc1 (stereo not drawn) [Compound R2-6] | higher acaricidal activity than etoxazole | 80% | 90% | 100% | 100% | 100% | 95% | 100% | 100% | 100% | 100% | mortality at 0.001 µg/mL [1, 3]: 21%; mortality at 0.01 µg/mL [1, 3]: 45%; mortality at 0.5 µg/mL [1, 3]: 80%; mortality at 0.001 µg/mL [2, 3]: 30%; mortality at 0.01 µg/mL [2, 3]: 60%; mortality at 0.5 µg/mL [2, 3]: 86%
C#CCCOCc1ccc(C2COC(c3c(F)cccc3F)=N2)cc1 (stereo not drawn) [Compound R2-7] |  | 40% | 75% | 90% | 100% | 100% | 70% | 90% | 95% | 100% | 100% | 
Fc1cccc(F)c1C1=NC(c2ccc(COCC#Cc3ccccc3)cc2)CO1 (stereo not drawn) [Compound R2-8] |  | 50% | 80% | 92% | 100% | 100% | 60% | 80% | 90% | 100% | 100% | 
Fc1cccc(F)c1C1=NC(c2ccc(COCC3CCCO3)cc2)CO1 (stereo not drawn) [Compound R2-9] |  |  | 30% | 75% | 95% | 100% |  | 55% | 85% | 100% | 100% | 
Fc1cccc(F)c1C1=NC(c2ccc(COCc3ccco3)cc2)CO1 (stereo not drawn) [Compound R2-10] |  |  |  | 62% | 80% | 95% |  |  | 75% | 100% | 100% | 
Fc1cccc(F)c1C1=NC(c2ccc(COCc3cccs3)cc2)CO1 (stereo not drawn) [Compound R2-11] |  |  | 70% | 80% | 100% | 100% |  | 75% | 90% | 100% | 100% | 
Fc1cccc(F)c1C1=NC(c2ccc(COc3ccccn3)cc2)CO1 (stereo not drawn) [Compound R2-12] |  |  | 50% | 95% | 100% | 100% |  | 65% | 90% | 100% | 100% | 
